Data taken from patent EP0652004B1, “Methods for treating resistant neoplasms” (ELI LILLY AND COMPANY, priority 1993, dated 1995).
Converted amounts (≈) assume the structure as drawn. Where two headings read alike, the source gives them in different places.

Assays:
HL60/ADR = assay: reversal of drug resistance to Adriamycin, in vitro cytotoxicity assay (3H-leucine incorporation); assay type: cell-based, human; conditions: change in IC50 of Adriamycin; test compound at maximum noncytotoxic concentration (Conc. µM: 12, 6, 3, 4)
Text: (§1) The cells used to analyze the reversal of drug resistance are the human leukemia cell lines HL60/s, HL60/Vinc, and HL60/ADR. HL60/s cells are not selected for drug resistance and are therefore sensitive to drug treatment (McGrath, et al., "Mechanisms of Multidrug Resistance in HL60 Cells. Analysis of Resistance Associated Membrane Proteins and Levels of MDR Gene Expression, Biochemical Pharmacology, 38: 3611-3619, 1989.). HL60/Vinc tumor cells are selected for resistance to vincristine and express a high level of the multidrug resistance-related protein, P-glycoProtein. Id. HL60/ADR cells are selected for resistance to Adriamycin but contain no detectable levels of P-glycoProtein. Id.
(§2) The in vitro cytotoxicity assays are performed by suspending the target cells into Minimum Essential Eagle's Medium (MEM) containing 25% of the normal leucine concentration and 10% dialyzed fetal calf serum. 2x10^4 cells are seeded into each well of 96 well microtiter plates and are incubated overnight in 5% CO2 at 37°C. The agents to be tested for reversal activity are serially diluted (100 µM, 50 µM, ..., 0.2 µM) in media and added to the cells. 48 hours after adding the reversal agents to the target cells, 4 µCi of ^3H-leucine are added to each well and are incubated for an additional 16 hours at 37°C. The cells are harvested and the amount of ^3H-leucine incorporation is determined. The concentration of reversal agent required for 50% inhibition of ^3H-leucine incorporation (IC50) is calculated. Subsequent studies using reversal agents in the presence of cytotoxic drug (i.e., Adriamycin) utilize maximal concentrations of reversal agents that are not cytotoxic by themselves. The reversal of drug resistance by the various test compounds is accomplished by adding the maximum noncytotoxic concentration of the test compounds to log dilutions of Adriamycin (10, 1, 0.1, ... 0.001 µg/ml) and calculating the change in IC50 observed for Adriamycin against the HL60/s, HL60/Vinc, and HL60/ADR cell lines in the above described in vitro cytotoxicity assay.

HL60/S cells = assay: cytotoxicity of oncolytic agents against HL60/S cells; assay type: cell-based; conditions: Homo sapiens, HL-60; HL60/S cells (drug sensitive, no P-glycoProtein)
Method: as §2

HL60/Adr cells = assay: cytotoxicity of oncolytic agents against HL60/Adr cells; assay type: cell-based; conditions: Homo sapiens
Method: as §2

HL60/VINC = assay: reversal of drug resistance to Adriamycin, in vitro cytotoxicity assay (3H-leucine incorporation); assay type: cell-based, human; conditions: change in IC50 of Adriamycin; test compound at maximum noncytotoxic concentration (Conc. µM column: 12, 4)
Text: as §1, §2

SMILES	Reversal Factor HL60/ADR (HL60/ADR)	IC50 (HL60/S cells) [µg/mL]	further results
C[C@]12CC[C@@H]3c4ccc(O)cc4CC[C@H]3[C@@H]1CC[C@@H]2O [17∝ Estradiol]	1	–	–
COc1cccc2c1C(=O)c1c(O)c3c(c(O)c1C2=O)C[C@@](O)(C(=O)CO)C[C@@H]3O[C@H]1C[C@H](N)[C@H](O)[C@H](C)O1 [Adriamycin, Doxorubicin]	–	0.011 (≈ 0.0202 µM)	IC50 (HL60/Adr cells; HL60/ADR): 2.2 µg/mL (≈ 4.05 µM)
COc1cc([C@@H]2c3cc4c(cc3[C@@H](O[C@@H]3O[C@@H]5CO[C@@H](C)O[C@H]5[C@H](O)[C@H]3O)[C@H]3COC(=O)[C@H]23)OCO4)cc(OC)c1O [Etoposide]	–	0.39 (≈ 0.663 µM)	IC50 (HL60/Adr cells; HL60/Adr cells (resistant to doxorubicin, express P190), read-out: IC50): > 10 µg/mL
Cl.O=C(c1ccc(OCCN2CCCCC2)cc1)c1c(-c2ccc(O)cc2)sc2cc(O)ccc12 [Raloxifene HCL, raloxifene]	7.1	–	–
CC/C(=C(\c1ccccc1)c1ccc(OCCN(C)C)cc1)c1ccccc1 [Tamoxifen]	1.4	–	Reversal Factor HL60/VINC (HL60/VINC): 4.6
